Measurements: paper PMC6956230, “Sequence Determinants of Substrate Ambiguity in a HAD Phosphosugar Phosphatase of Arabidopsis Thaliana” (Biology, 2019)

Key:
AtSgpp (MBP-AtSgpp) [1] = target: T1, AtSgpp (MBP-AtSgpp) (Arabidopsis thaliana, UniProt Q9ZVJ5, DEL53-55); assay: phosphate release, molybdate/ascorbic acid assay, Lineweaver-Burk; assay type: biochemical; conditions: 20 mM Tris-HCl pH 7.0, 5 mM MgCl2, 32 °C, MBP fusion, brackets: 95% CI and [SD]
T1 construct: gene SGPP; full-length coding region (735 bp EcoRI/SalI fragment) in pMAL-c2x; N-terminal MBP fusion kept, vector residues Ile-Ser-Glu-Phe before Met1; expressed in E. coli TB1 with pSBETa; amylose resin
T1 sequence (Q9ZVJ5 with tags, fused parts or gaps DEL53-55): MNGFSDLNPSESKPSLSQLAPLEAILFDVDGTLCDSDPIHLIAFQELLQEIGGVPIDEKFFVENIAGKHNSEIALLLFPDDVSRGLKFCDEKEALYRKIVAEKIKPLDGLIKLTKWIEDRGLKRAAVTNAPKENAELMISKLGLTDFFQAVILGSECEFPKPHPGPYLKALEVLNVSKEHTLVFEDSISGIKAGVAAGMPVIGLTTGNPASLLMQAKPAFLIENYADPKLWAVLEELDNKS
Excerpt: (§1) phosphate release, molybdate/ascorbic acid assay, Lineweaver-Burk on AtSgpp (MBP-AtSgpp)

AtSgpp (MBP-AtSgpp) [2] = target: T2, AtSgpp (MBP-AtSgpp) (Arabidopsis thaliana, UniProt Q9ZVJ5); assay: as above; assay type: biochemical; conditions: 20 mM Tris-HCl pH 7.0, 5 mM MgCl2, 32 °C, MBP fusion, brackets: 95% CI and [SD]
T2 construct: gene SGPP; full-length coding region (735 bp EcoRI/SalI fragment) in pMAL-c2x; N-terminal MBP fusion kept, vector residues Ile-Ser-Glu-Phe before Met1; expressed in E. coli TB1 with pSBETa; amylose resin
T2 sequence (Q9ZVJ5 1-244): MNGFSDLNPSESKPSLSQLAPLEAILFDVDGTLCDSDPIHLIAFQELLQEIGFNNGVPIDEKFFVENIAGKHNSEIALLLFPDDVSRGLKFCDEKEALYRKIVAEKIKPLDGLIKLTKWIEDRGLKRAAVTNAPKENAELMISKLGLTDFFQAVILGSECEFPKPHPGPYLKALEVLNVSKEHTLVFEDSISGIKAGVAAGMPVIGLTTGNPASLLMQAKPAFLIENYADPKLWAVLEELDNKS
Excerpt: as §1

Compound | apparent Km (AtSgpp (MBP-AtSgpp) [1]) | apparent Km (AtSgpp (MBP-AtSgpp) [2])
O=P(O)(O)OCC(O)CO (racemic) [DL-glycerol-3-phosphate] | 14 (13.7–14.3) × 10^−3 [0.3] M | 7.3 (7.1–7.5) × 10^−3 [0.2] M
O=P(O)(O)OC[C@H]1OC(O)[C@@H](O)[C@@H](O)[C@@H]1O (stereo partly drawn) [D-mannose-6-phosphate] | 6.7 (6.6–6.8) × 10^−3 [0.1] M | 4.9 (4.2–5.6) × 10^−3 [0.6] M
O=P(O)(O)OC[C@H]1OC(O)[C@H](O)[C@@H](O)[C@@H]1O (stereo partly drawn) [D-glucose-6-phosphate] | 8.3 (8–8.6) × 10^−3 [0.3] M | 7.1 (6.8–7.4) × 10^−3 [0.3] M
O=P(O)(O)OC[C@H]1OC(O)C[C@@H](O)[C@@H]1O (stereo partly drawn) [2-deoxy-D-glucose-6-phosphate] | 4.7 (4.5–4.9) × 10^−3 [0.2] M | 4.6 (4–5.2) × 10^−3 [0.5] M
O=P(O)(O)OC[C@H]1OC(O)(CO)[C@@H](O)[C@@H]1O (stereo partly drawn) [D-fructose-6-phosphate] | 10 (9.5–10.5) × 10^−3 [0.4] M | 7.7 (7.3–8.1) × 10^−3 [0.4] M
O=P(O)(O)OC[C@H]1OC(O)[C@H](O)[C@@H]1O (stereo partly drawn) [D-ribose-5-phosphate] | 3.7 (3.5–3.9) × 10^−3 [0.2] M | 3.6 (3.5–3.7) × 10^−3 [0.1] M
